# From patent US7037645B2, “Methods for identification of CDS8+ suppressor molecules” (priority 2000, dated 2006)
# Read-outs that look alike come from different tables or passages of the source.
# Test system: CXCR4 dependent pseudotyped virus (NL4-3)
# Assay: Single cycle HIV infection assay, pseudotyped luciferase reporter virus, time of addition
# Conditions: for activity at 0.2 µM: read-out: viral infection level, % of control levels; for inhibition of pseudotyped virus expression: all time points of addition, 0.2 μM
Compound,"activity at 0.2 µM (Human immunodeficiency virus 1, NL43, 10 h) [%]","activity at 0.2 µM (Human immunodeficiency virus 1, NL43, 14 h) [%]","time post virus exposure within which addition suppresses pseudotyped virus replication (time of addition, DP178 20 μg/ml, mAb#19 20 μg/ml, nevirapine 0.2 μM, Tat inhibitor 50 μM)",inhibition of pseudotyped virus expression,inhibition of pseudotyped virus expression (listed as protease inhibitor)
Cc1ccnc2c1NC(=O)c1cccnc1N2C1CC1 [nevirapine],67,85,approximately 10 hours,–,–
Cc1c(O)cccc1C(=O)N[C@@H](CSc1ccccc1)[C@H](O)CN1C[C@H]2CCCC[C@H]2C[C@H]1C(=O)NC(C)(C)C [nelfinavir],–,–,–,ineffectual,"does not, therefore, inhibit"
